# System: Plasmodium falciparum
# Experiment: GSK_TCMDC: Inhibition of Plasmodium falciparum 3D7 in whole erythrocytes, using parasite LDH activity as an index of growth.
# Type: functional, organism-based
# Conditions: Plasmodium falciparum, 3D7
row,SMILES,XC50 [nM]
1,Cc1cccc(C(O)CNc2ccnc(Nc3cccc(-c4csc(C)n4)c3)n2)c1 (stereo not given),675
2,COc1ccc2c(c1)S(=O)(=O)N=C(N1CCCC1c1ccc(Cl)c(Cl)c1)N2C (stereo not given),1280
3,Nc1ncc(-c2ccc(F)c(Cl)c2)c(N)n1,1230
4,Clc1ccc(-c2ccc(CNCCCN3CCCC3)cc2)cc1,1060
5,COc1ccc2nccc([C@@H](O)CN3CCC(NCc4nc5c(C#N)cccc5[nH]4)CC3)c2c1,999
6,Cc1nc(Nc2ccncc2)cc(-c2ccncc2)n1,725
7,CCOc1cccc2nc(NCCCNCc3ccc(Cl)c(Cl)c3)cc(NCCCNCc3ccc(Cl)c(Cl)c3)c12,574
8,COc1ccc(NC(=O)c2cc(-c3ccc(NC(C)=O)cc3)cnc2N)cc1,806
9,O=C(Nc1ccc(-c2cccc(-c3nc4cc(F)ccc4[nH]3)c2)cc1)c1cnn2cccnc12,647
10,Fc1ccc(CNc2nc(-c3ccc(F)c(C(F)(F)F)c3)n(-c3cccc(C(F)(F)F)c3)n2)cc1,563
11,Cc1ccc(C(=O)Nc2ccc(C)c(OC3CCN(Cc4ccco4)C3)c2)cc1 (stereo not given),966
12,CC(O)C1CCCCN1C(=O)c1cccc(-c2cccc(-c3nc4cc(C(F)(F)F)ccc4[nH]3)c2)c1 (stereo not given),280
13,Cc1n[nH]c2ccc(-c3ccc4nccc(N5CCC(N)CC5)c4c3)cc12,591
14,Cc1nc2nc(N)nc(N)c2c(C)c1Cc1ccc(C(F)(F)F)cc1,747
15,CN(C(=O)Cc1ccc(Cl)c(Cl)c1)C1CCN(CCCCCNC(=O)/C=C/c2ccc(Cl)c(Cl)c2)CC1,739
16,Cc1cc(C)n(-c2nc(Nc3cccc(C(F)(F)F)c3)nc(-n3nc(C)cc3C)n2)n1,362
17,CCCc1cc(Cc2cnc(N)nc2N)cc(CC)c1O,1320
18,O=C(c1c(-c2[nH]c3ccccc3c2C(=O)C(F)(F)F)[nH]c2ccccc12)C(F)(F)F,746
19,COc1cccc(C(=O)Nc2ccc(S(=O)(=O)c3cc4c(cc3OC)CCN(C)CC4)cc2)c1,1100
20,Cc1cc2c(cc1C(F)(F)F)N(C(=O)Nc1ccc(OCCN(C)C)c(C(F)(F)F)c1)CC2,905

row,SMILES,XC50 [nM]
1,COc1ccc(CNC(=O)Nc2cc3cc(-c4ccc(CN(C)C)cc4)ccc3n3c(C)nnc23)cc1,852
2,CCC(CC)n1cc2c(ccc3nc(N)nc(N)c32)n1,81.4
3,CC(=O)Nc1nc(N)c2c(ccc3c2ccn3CC(C)C)n1,69.6
4,O=C(O)c1ccc(-c2cnc3ccc(NC4CCC(O)CC4)nn23)cc1 (stereo not given),995
5,Cc1noc(C)c1-c1cccc(CNCc2ccc(-c3ccc(-c4nc5cc(C(F)(F)F)ccc5[nH]4)s3)cc2)c1,181
6,Nc1ccnc2ccc(OCCCCCCc3ccccc3)cc12,524
7,Cc1cccc2nc(-c3ccc(-c4cccc(CN5CCN(CCN6CCOCC6)CC5)c4)s3)[nH]c12,153
8,Cc1cccc2nc(-c3ccc(-c4ccc(NC(=O)C(C)CN(C)C)cc4)cc3)[nH]c12 (stereo not given),681
9,Cc1ccc(NCc2cccc(F)c2)cc1S(=O)(=O)N[C@@H]1CCN(C#N)C1,785
10,Nc1nc(N)c2cc(Cc3ccc([N+](=O)[O-])cc3)cnc2n1,943
11,CC(=O)Nc1ncc(C(=O)Nc2cccc(-c3cccc(-c4nc5ccccc5[nH]4)c3)c2)s1,814
12,O=C(Nc1ccccc1)c1ccc(N2CCC(COc3cccc(C(F)(F)F)c3)CC2)nc1,298
13,O=C(/C=C/c1ccc(Cl)cc1)NCCCCCN1CCCC(C(=O)Nc2cccc(Cl)c2)C1 (stereo not given),208
14,Cc1cc(C)c2cc(CNCCCNc3nc4ccccc4[nH]3)[nH]c2c1,768
15,CC(C)COc1ccc(Cl)cc1Cc1ccc(-c2nc3cnc4ccccc4c3[nH]2)o1,1260
16,CN1CCC(C(=O)N(Cc2ccc(-c3ccc(CNCCc4ccccc4)cn3)cc2)C2Cc3ccccc3C2)CC1,1060
17,N#Cc1ccc(CN2CCCN(Cc3cccc(NC(=O)c4cc5ccccc5s4)c3)CC2)cc1,907
18,Cc1noc(-c2cccs2)c1C(=O)NC(C)c1cccc2ccccc12 (stereo not given),129
19,Cc1cccc2nc(-c3cccc(-c4cccc(NC(=O)c5cn(C)c(=O)n5C)c4)c3)[nH]c12,505
20,O=C(Nc1ccc(OC2CCN(Cc3ccc(F)cc3)C2)c(Cl)c1)c1cccs1 (stereo not given),128

# Reference: ChEMBL document CHEMBL1157539, “Thousands of chemical starting points for antimalarial lead identification” (Nature, 2010)
